In paper PMC6364417, “Kinase inhibitor library screening identifies synergistic drug combinations effective in sensitive and resistant melanoma cells” (Journal of Experimental & Clinical Cancer Research : CR, 2019):

What was measured:
Assay in all cases: Kinase inhibitor library screening, PrestoBlue cell viability, 1 or 10 μM, 72 h
501Mel cells (parental) = details: 501Mel Parental, 72 h
Protocol: (§1) After 72 h of treatment, cell viability was assessed using the PrestoBlue Cell Viability Reagent (ThermoFisher Scientific). Measurements were performed with the CLARIOstar Monochromator microplate reader (BMG Labtech).
(§2) Kinase inhibitor library screening. […] Each cell line was treated in its sensitive form (parental), and also as 2 resistant derivatives, which were made resistant to either Vemurafenib (XP) or Dabrafenib (GP). Drugs were added at 2 different concentrations, 1 and 10 μM, for 72 h and cell viability was assessed using the PrestoBlue Cell Viability assay. Results are depicted as % viability compared to untreated cells. Each cell line was analyzed at least in duplicate. […] (XLSX 95 kb)

[1] = tested on: 501Mel-GP cells (Dabrafenib-resistant); details: 501Mel GP, 72 h
Protocol: as §1, §2

[2] = tested on: 501Mel-XP cells (Vemurafenib-resistant); details: 501Mel XP, 72 h
Protocol: as §1, §2

A375 cells (parental) = details: A375 Parental, 72 h
Protocol: as §1, §2

[3] = tested on: A375-GP cells (Dabrafenib-resistant); details: A375 GP, 72 h
Protocol: as §1, §2

[4] = tested on: A375-XP cells (Vemurafenib-resistant); details: A375 XP, 72 h
Protocol: as §1, §2

IGR37 cells (parental) = details: IGR37 Parental, 72 h
Protocol: as §1, §2

[5] = tested on: IGR37-GP cells (Dabrafenib-resistant); details: IGR37 GP, 72 h
Protocol: as §1, §2

[6] = tested on: IGR37-XP cells (Vemurafenib-resistant); details: IGR37 XP, 72 h
Protocol: as §1, §2

SMILES: CCCCOc1c(C(=O)c2c(F)cc(C)cc2F)c[nH]c2nncc1-2 [BMS-265246]
- cell viability (kinase inhibitor library screening) (501Mel cells (parental); 1μΜ): 92.4%
- cell viability (kinase inhibitor library screening) (501Mel cells (parental); 10μΜ): 77.7%
- cell viability (kinase inhibitor library screening) ([1]; 1μΜ): 94.2%
- cell viability (kinase inhibitor library screening) ([1]; 10μΜ): 52.8%
- cell viability (kinase inhibitor library screening) ([2]; 1μΜ): 87.1%
- cell viability (kinase inhibitor library screening) ([2]; 10μΜ): 32.9%
- cell viability (kinase inhibitor library screening) (A375 cells (parental); 10μΜ): 49.0%
- cell viability (kinase inhibitor library screening) (A375 cells (parental); 1μΜ): 91.4%
- cell viability (kinase inhibitor library screening) ([3]; 1μΜ): 93.5%
- cell viability (kinase inhibitor library screening) ([3]; 10μΜ): 40.3%
- cell viability (kinase inhibitor library screening) ([4]; 1μΜ): 94.5%
- cell viability (kinase inhibitor library screening) ([4]; 10μΜ): 71.7%
- cell viability (kinase inhibitor library screening) (IGR37 cells (parental); 1μΜ): 91.7%
- cell viability (kinase inhibitor library screening) (IGR37 cells (parental); 10μΜ): 91.8%
- cell viability (kinase inhibitor library screening) ([5]; 1μΜ): 90.7%
- cell viability (kinase inhibitor library screening) ([5]; 10μΜ): 83.4%
- cell viability (kinase inhibitor library screening) ([6]; 1μΜ): 85.9%
- cell viability (kinase inhibitor library screening) ([6]; 10μΜ): 48.1%

SMILES: Cc1c(NC(=O)OC[C@@H]2COCCN2)cn2ncnc(Nc3ccc4c(cnn4Cc4cccc(F)c4)c3)c12 [BMS-599626 (AC480)]
- cell viability, 501Mel Parental, 1μΜ (501Mel cells (parental); 1μΜ, in %): 99.1
- cell viability, 501Mel Parental, 10μΜ (501Mel cells (parental); 10μΜ, in %): 87.7
- cell viability, 501Mel GP, 1μΜ ([1]; 1μΜ, in %): 106.6
- cell viability, 501Mel GP, 10μΜ ([1]; 10μΜ, in %): 91.5
- cell viability, 501Mel XP, 1μΜ ([2]; 1μΜ, in %): 93.0
- cell viability, 501Mel XP, 10μΜ ([2]; 10μΜ, in %): 61.8
- cell viability, A375 Parental, 1μΜ (A375 cells (parental); 1μΜ, in %): 103.3
- cell viability, A375 Parental, 10μΜ (A375 cells (parental); 10μΜ, in %): 84.6
- cell viability, A375 GP, 10μΜ ([3]; 10μΜ, in %): 84.2
- cell viability, A375 XP, 1μΜ ([4]; 1μΜ, in %): 107.8
- cell viability, A375 XP, 10μΜ ([4]; 10μΜ, in %): 91.0
- cell viability, IGR37 Parental, 1μΜ (IGR37 cells (parental); 1μΜ, in %): 109.0
- cell viability, IGR37 Parental, 10μΜ (IGR37 cells (parental); 10μΜ, in %): 92.5
- cell viability, IGR37 GP, 10μΜ ([5]; 10μΜ): 75%
- cell viability, IGR37 GP, 1μΜ ([5]; 1μΜ, in %): 95.5
- cell viability, IGR37 XP, 10μΜ ([6]; 10μΜ): 48.2%
- cell viability, IGR37 XP, 1μΜ ([6]; 1μΜ, in %): 96.7

SMILES: CC(C)c1cnn2c(NCc3ccccc3)cc(NCCCCCCN)nc12.Cl [BS-181 HCl]
- cell viability (kinase inhibitor library screening) (501Mel cells (parental); 1μΜ): 97.6%
- cell viability (kinase inhibitor library screening) (501Mel cells (parental); 10μΜ): 87.4%
- cell viability (kinase inhibitor library screening) ([1]; 1μΜ): 108.6%
- cell viability (kinase inhibitor library screening) ([1]; 10μΜ): 87.7%
- cell viability (kinase inhibitor library screening) ([2]; 1μΜ): 98.4%
- cell viability (kinase inhibitor library screening) ([2]; 10μΜ): 55.9%
- cell viability (kinase inhibitor library screening) (A375 cells (parental); 10μΜ): 91.6%
- cell viability (kinase inhibitor library screening) ([3]; 1μΜ): 105.9%
- cell viability (kinase inhibitor library screening) ([3]; 10μΜ): 84.9%
- cell viability (kinase inhibitor library screening) ([4]; 1μΜ): 112.1%
- cell viability (kinase inhibitor library screening) ([4]; 10μΜ): 92.4%
- cell viability (kinase inhibitor library screening) (IGR37 cells (parental); 1μΜ): 98.6%
- cell viability (kinase inhibitor library screening) ([5]; 1μΜ): 92.7%
- cell viability (kinase inhibitor library screening) ([5]; 10μΜ): 81.4%
- cell viability (kinase inhibitor library screening) ([6]; 1μΜ): 97.6%
- cell viability (kinase inhibitor library screening) ([6]; 10μΜ): 59.8%

SMILES: O=C(NCCCNc1nc(Nc2cccc(NC(=O)N3CCCC3)c2)ncc1I)c1cccs1 [BX-795]
- Cell viability in kinase inhibitor library screening, 501Mel Parental, 1μΜ (501Mel cells (parental); 1μΜ, in %): 92.8
- Cell viability in kinase inhibitor library screening, 501Mel Parental, 10μΜ (501Mel cells (parental); 10μΜ, in %): 82.7
- Cell viability in kinase inhibitor library screening, 501Mel GP, 1μΜ ([1]; 1μΜ, in %): 97.1
- Cell viability in kinase inhibitor library screening, 501Mel GP, 10μΜ ([1]; 10μΜ, in %): 64.9
- Cell viability in kinase inhibitor library screening, 501Mel XP, 1μΜ ([2]; 1μΜ, in %): 89.4
- Cell viability in kinase inhibitor library screening, 501Mel XP, 10μΜ ([2]; 10μΜ, in %): 39.9
- Cell viability in kinase inhibitor library screening, A375 Parental, 10μΜ (A375 cells (parental); 10μΜ): 38.1
- Cell viability in kinase inhibitor library screening, A375 Parental, 1μΜ (A375 cells (parental); 1μΜ): 87.7
- Cell viability in kinase inhibitor library screening, A375 GP, 1μΜ ([3]; 1μΜ): 86.6
- Cell viability in kinase inhibitor library screening, A375 GP, 10μΜ ([3]; 10μΜ): 43.6
- Cell viability in kinase inhibitor library screening, A375 XP, 1μΜ ([4]; 1μΜ): 93.4
- Cell viability in kinase inhibitor library screening, A375 XP, 10μΜ ([4]; 10μΜ): 48.3
- Cell viability in kinase inhibitor library screening, IGR37 Parental, 1μΜ (IGR37 cells (parental); 1μΜ, in %): 97.9
- Cell viability in kinase inhibitor library screening, IGR37 Parental, 10μΜ (IGR37 cells (parental); 10μΜ, in %): 56.4
- Cell viability in kinase inhibitor library screening, IGR37 GP, 10μΜ ([5]; 10μΜ): 15.1%
- Cell viability in kinase inhibitor library screening, IGR37 GP, 1μΜ ([5]; 1μΜ, in %): 85.8
- Cell viability in kinase inhibitor library screening, IGR37 XP, 10μΜ ([6]; 10μΜ): 7.6%
- Cell viability in kinase inhibitor library screening, IGR37 XP, 1μΜ ([6]; 1μΜ, in %): 93.9

SMILES: O=C(Nc1cccc(Nc2ncc(Br)c(NCCc3cnc[nH]3)n2)c1)N1CCCC1 [BX-912]
- Cell viability in kinase inhibitor library screening, 501Mel Parental, 1μΜ (501Mel cells (parental); 1μΜ, in %): 93.6
- Cell viability in kinase inhibitor library screening, 501Mel Parental, 10μΜ (501Mel cells (parental); 10μΜ, in %): 63.6
- Cell viability in kinase inhibitor library screening, 501Mel GP, 1μΜ ([1]; 1μΜ, in %): 99.2
- Cell viability in kinase inhibitor library screening, 501Mel GP, 10μΜ ([1]; 10μΜ, in %): 59.6
- Cell viability in kinase inhibitor library screening, 501Mel XP, 1μΜ ([2]; 1μΜ, in %): 89.5
- Cell viability in kinase inhibitor library screening, 501Mel XP, 10μΜ ([2]; 10μΜ, in %): 48.6
- Cell viability in kinase inhibitor library screening, A375 Parental, 10μΜ (A375 cells (parental); 10μΜ): 34.9
- Cell viability in kinase inhibitor library screening, A375 Parental, 1μΜ (A375 cells (parental); 1μΜ): 92.0
- Cell viability in kinase inhibitor library screening, A375 GP, 1μΜ ([3]; 1μΜ): 87.6
- Cell viability in kinase inhibitor library screening, A375 GP, 10μΜ ([3]; 10μΜ): 38.0
- Cell viability in kinase inhibitor library screening, A375 XP, 1μΜ ([4]; 1μΜ): 88.9
- Cell viability in kinase inhibitor library screening, A375 XP, 10μΜ ([4]; 10μΜ): 36.6
- Cell viability in kinase inhibitor library screening, IGR37 Parental, 1μΜ (IGR37 cells (parental); 1μΜ, in %): 91.9
- Cell viability in kinase inhibitor library screening, IGR37 Parental, 10μΜ (IGR37 cells (parental); 10μΜ, in %): 65.1
- Cell viability in kinase inhibitor library screening, IGR37 GP, 10μΜ ([5]; 10μΜ): 55.1%
- Cell viability in kinase inhibitor library screening, IGR37 XP, 10μΜ ([6]; 10μΜ): 16.7%
- Cell viability in kinase inhibitor library screening, IGR37 XP, 1μΜ ([6]; 1μΜ, in %): 94.7

SMILES: Cc1nc(NC(=O)N2CCC[C@H]2C(N)=O)sc1-c1ccnc(C(C)(C)C(F)(F)F)c1 [BYL719]
- Cell viability in kinase inhibitor library screening, 501Mel Parental, 1μΜ (501Mel cells (parental); 1μΜ, in %): 99.0
- Cell viability in kinase inhibitor library screening, 501Mel Parental, 10μΜ (501Mel cells (parental); 10μΜ, in %): 90.7
- Cell viability in kinase inhibitor library screening, 501Mel GP, 10μΜ ([1]; 10μΜ, in %): 62.2
- Cell viability in kinase inhibitor library screening, 501Mel XP, 1μΜ ([2]; 1μΜ, in %): 90.3
- Cell viability in kinase inhibitor library screening, 501Mel XP, 10μΜ ([2]; 10μΜ, in %): 56.3
- Cell viability in kinase inhibitor library screening, A375 Parental, 10μΜ (A375 cells (parental); 10μΜ): 60.2
- Cell viability in kinase inhibitor library screening, A375 Parental, 1μΜ (A375 cells (parental); 1μΜ): 93.2
- Cell viability in kinase inhibitor library screening, A375 GP, 1μΜ ([3]; 1μΜ): 86.9
- Cell viability in kinase inhibitor library screening, A375 GP, 10μΜ ([3]; 10μΜ): 52.5
- Cell viability in kinase inhibitor library screening, A375 XP, 1μΜ ([4]; 1μΜ): 93.5
- Cell viability in kinase inhibitor library screening, A375 XP, 10μΜ ([4]; 10μΜ): 62.9
- Cell viability in kinase inhibitor library screening, IGR37 Parental, 1μΜ (IGR37 cells (parental); 1μΜ, in %): 99.1
- Cell viability in kinase inhibitor library screening, IGR37 Parental, 10μΜ (IGR37 cells (parental); 10μΜ, in %): 77.8
- Cell viability in kinase inhibitor library screening, IGR37 GP, 10μΜ ([5]; 10μΜ): 62.1%
- Cell viability in kinase inhibitor library screening, IGR37 GP, 1μΜ ([5]; 1μΜ, in %): 90.5
- Cell viability in kinase inhibitor library screening, IGR37 XP, 10μΜ ([6]; 10μΜ): 20.2%
- Cell viability in kinase inhibitor library screening, IGR37 XP, 1μΜ ([6]; 1μΜ, in %): 80.6

SMILES: CCN(CCO)CCCOc1ccc2c(Nc3cc(CC(=O)Nc4cccc(F)c4)[nH]n3)ncnc2c1 [Barasertib (AZD1152-HQPA)]
- cell viability (kinase inhibitor library screening) (501Mel cells (parental); 1μΜ): 96.3%
- cell viability (kinase inhibitor library screening) (501Mel cells (parental); 10μΜ): 92.5%
- cell viability (kinase inhibitor library screening) ([1]; 1μΜ): 99.2%
- cell viability (kinase inhibitor library screening) ([1]; 10μΜ): 86.2%
- cell viability (kinase inhibitor library screening) ([2]; 1μΜ): 90.3%
- cell viability (kinase inhibitor library screening) ([2]; 10μΜ): 81.8%
- cell viability (kinase inhibitor library screening) (A375 cells (parental); 10μΜ): 59.0%
- cell viability (kinase inhibitor library screening) (A375 cells (parental); 1μΜ): 59.4%
- cell viability (kinase inhibitor library screening) ([3]; 1μΜ): 57.9%
- cell viability (kinase inhibitor library screening) ([3]; 10μΜ): 61.1%
- cell viability (kinase inhibitor library screening) ([4]; 1μΜ): 66.2%
- cell viability (kinase inhibitor library screening) ([4]; 10μΜ): 68.8%
- cell viability (kinase inhibitor library screening) (IGR37 cells (parental); 1μΜ): 93.5%
- cell viability (kinase inhibitor library screening) (IGR37 cells (parental); 10μΜ): 81.6%
- cell viability (kinase inhibitor library screening) ([5]; 1μΜ): 98.3%
- cell viability (kinase inhibitor library screening) ([5]; 10μΜ): 91.0%
- cell viability (kinase inhibitor library screening) ([6]; 1μΜ): 98.0%
- cell viability (kinase inhibitor library screening) ([6]; 10μΜ): 51.5%
